From patent US20100240656A1, “COMPOUNDS AS HSP90 INHIBITORS” (ORYZON GENOMICS, S.A., priority 2007, published 2010)
Entries after “also recorded” stand apart in the source; their conditions may differ.

Key:
[1] = tested on: Hsp90 client proteins (c-Raf-1, Cdk4, Her2) and co-chaperone Hsp70; assay: Determination of biomarkers in cell cultures (western blot, MCF7 cells); type: cell-based, human; settings: 33 and 100 μM, 72 hours
Text: FIG. 1 is a western blot analysis to determine the protein levels of Hsp90 client proteins (c-Raf-1, Cdk4, and Her2) and the co-chaperone Hsp70 upon treatment with increasing concentrations of example 6 (compound of the invention) and 17AAG (which is known in the state of the art as a degradation promoter).
The aim of this study was to determine the influence of example 6 on the levels of pharmacodynamic biomarkers such as c-Raf-1, Cdk4, Her2 and Hsp70, indicative that the effect observed in cell viability is mediated through inhibition of Hsp90. GADPH was used as a control of protein loading.
MCF7 cells (1×10^6) were seeded on tissue culture dishes and allowed to grow overnight at 37° C. with 5% CO2. Cells were treated with example 6 compound (at 33 and 100 μM) and the known Hsp90 inhibitor 17AAG (at […]). 0.5% DMSO was used as control. […] Protein concentration was measured by the Bradford method (Bio-Rad Protein Assay, Bio-Rad). […] Following appropriate secondary antibody incubation for 1 h at room temperature (anti-rabbit IgG-HRP, NA934V, Amersham Biosciences, diluted 1:8000; anti-mouse IgG-HRP, sc-2061, Santa Cruz Biotechnology, diluted 1:2500 and, anti-goat IgG-HRP, sc-31154, Santa Cruz Biotechnology, diluted 1:3500), the specific protein signals were detected using the ECL-Plus Western blotting detection system (GE Healthcare) according to the manufacturer's instructions. […]

[2] = tested on: SKBr3; assay: Cell growth inhibition by AlamarBlue method, SKBr3; type: cell-based; settings: Homo sapiens, SK-BR-3; SKBr3, 72 hours; read-out: Cell growth inhibition values (EC50) obtained with AlamarBlue method
Procedure: The human colon cancer cell line HCT-116 and the human breast cell lines MCF-7 and SKBr3 were from the American Type Culture Collection (ATCC; CCL-247, HTB-22 and HTB-30, respectively).
The HCT-116 and SKBr3 cell lines were maintained in DMEM GlutaMAX (Invitrogen) supplemented with 10% fetal calf serum and the MCF-7 cell line was maintained in RPMI1640 GlutaMAX (Invitrogen) containing 1 mM sodium pyruvate and 10% fetal calf serum. Cells were grown in a humidified incubator at 37° C. in 5% CO2
Cells were plated in 96-well plates (Costar, 3596) at a density of 6000 cells/well in 50 μL medium 24 h before addition of the compounds. Compounds were then added in 8 concentrations, each in triplicate (dilution series of 1 to 3). To do so, a compound-dilution plate at 200× the screening concentrations was prepared in DMSO 100% (Sigma, 154938). Then, 1.7 μL of the 200× diluted compounds were transferred to a new plate and 170 μL of media were added and mixed with the pipette (plate at 2×). Columns 11 and 12 of this plate (controls) were filled with 1% DMSO in cell media (i.e. 1.7 μL DMSO and 170 μL cell media). Finally, 50 μL of this intermediate plate at 2× were transferred to the plate containing the seeded cells and slowly shaken manually. Cells were grown as described above. AlamarBlue viability assay (Biosource, Invitrogen, DAL1100) was performed 72 hours later following manufacturer's protocol. In brief, AlamarBlue diluted in media was added to cells to have a 5% solution (a 2× solution was prepared in media and 100 μL of this solution were transferred to each well, i.e. final volume of 200 μL). Cells were incubated at 37° C., 3 hours and at room temperature for an additional 30 min. Cells with no compound and, cells with no compound and lysed with triton X-100 (30 μL/well added 10 min before treatment with AlamarBlue) were used as controls (6 replicates of each). Fluorescence was monitored at 530 nm excitation and 590 nm emission wavelengths. Results were quantified using ELx800 Universal Microplate Reader (Bio-Tek Instruments, Inc.). EC50 were calculated as the dose of compound required to inhibit cell growth by 50%.

| Structure (SMILES) | protein levels of Hsp90 client proteins (c-Raf-1, Cdk4, Her2) and co-chaperone Hsp70 by western blot [1] | EC50 [2] [µM] |
| --- | --- | --- |
| NCCCCCn1c(Sc2cc3c(cc2I)OCO3)nc(C(N)=O)c1N [Example 6, 5-amino-1-(5-amino-pentyl)-2-(6-iodo-benzo[1,3]dioxol-5-ylsulfanyl)-1H-imidazole-4-carboxamide] | acts in a similar way that 17AAG; also recorded: there is a specific interaction with hsp90 target in cells | – |
| CCCCn1c(Sc2cc3c(cc2I)OCO3)nc(C(N)=O)c1N [Example 10, 5-amino-1-butyl-2-(6-iodo-benzo[1,3]dioxol-5-ylsulfanyl)-1H-imidazole-4-carboxamide] | – | 24 to 30 |
